≈ marks a conversion by molar mass, not a printed value.
Test system: 3rd or 4th instar larvae of tobacco cut worm
Assay: Diluted emulsion sprayed by settling tower on larvae (Example X)
Format: in vivo
Settings: emulsion diluted to 50 times, 1 ml
Protocol: Ten of the 3rd or 4th instar larvae of tobacco cut worm were put into a petri dish of 17 cm in diameter.
One ml of the present compound (4, 11, 28, 92, 94, 95, 109, 111) in form of an emulsion obtained in Example X, which were diluted to 50 times with water, were sprayed by means of a settling tower. The said larvae were removed into another petri dish with the leaves of the chinese cabbage leaves. Observation was made after 48 hrs. As a result, more than 90% of the larvae were dead in each case.

| SMILES | larvae dead after 48 hrs |
| --- | --- |
| C#CC(OC(=O)C1C(C)(C)C1(C)C)C(C)=CC (stereo not shown) [Compound 11, 1-Ethynyl-2-methyl-2-butenyl 2',2',3',3'-tetramethylcyclo-propanecarboxylate] | more than 90% |
| C#CC(C#CCC=C)OC(=O)C1C(C=C2CCCC2)C1(C)C (stereo not shown) [Compound 94, 1-Ethynylhexa-2-yn-5-en-1-yl 2',2'-dimethyl-3-'-cyclopentylidene-methylcyclopropanecarboxylate] | more than 90% |
| C#CC(C#CCC=C)OC(=O)C1C(C=C(Cl)Cl)C1(C)C (stereo not shown) [Compound 95, 1-Ethynylhexa-2-yn-5-en-1-yl 2',2'-dimethyl-3'-(2",2"- dichlorovinyl)cyclopropane-carboxylate] | more than 90% |
| C#CC(OC(=O)C1C(C=C2CCCC2)C1(C)C)C(C)=CCC (stereo not shown) [Compound 28, 1-Ethynyl-2-methyl-2-pentenyl 2',2'-dimethyl-3'-cyclopentylidene-methylcyclopropanecarboxylate] | more than 90% |
| C#CC(OC(=O)C1C(C=C(C)C)C1(C)C)C(=CC1=CCCC1)CC (stereo not shown) [Compound 109, 1-Ethynyl-2-ethyl-3-(1'-cyclopentenyl)allyl chrysanthemate] | more than 90% |
| C#CC(C#CCC=C)OC(=O)C1C(C=CC=C)C1(C)C (stereo not shown) [Compound 92, 1-Ethynylhexa-2-yn-5-en-1-yl 2',2'-dimethyl-3'-(1",3"- butadienyl)cyclopropane-carboxylate] | more than 90% |
| C#CC(OC(=O)C1C(C=C2CCCC2)C1(C)C)C(C)=CCC1=CCCC1 (stereo not shown) [Compound 111, 1-Ethynyl-2-methyl-4-(1'-cyclopentenyl)-2-butenyl 2",2"- dimethyl-3"-cyclopentylidene-methylcyclopropanecarboxylate] | more than 90% |

Test system: adult planthoppers
Assay: Residual effect on sprayed rice seedlings (Example XV)
Format: in vivo
Settings: concentrate diluted to 400 times; observed 24 hours after release
Protocol: About 20 rice seedlings, cultivated for 20 days after sowing in a flower pot of 8.5 cm in diameter, were sprayed with each of the emulsifiable concentrates obtained as in Example X which were diluted to 400 times with water. After air-drying, each pot was covered with a wire cage, into which 20 adult planthoppers were released as time elapsed. And the observation was made after 24 hours.

| SMILES | Mortality (%) After 1 day | Mortality (%) After 6 days |
| --- | --- | --- |
| C#CC(OC(=O)C1C(C=C2CCCC2)C1(C)C)C(C)=Cc1ccccc1 (stereo not shown) [Compound 40] | 100% | 66.7% |
| C#CC(OC(=O)C1C(C)(C)C1(C)C)C(C)=Cc1ccccc1 (stereo not drawn) [Compound 39, α-Ethynyl-β-methylcinnamyl 2,2,3,3-tetramethyl-cyclopropanecarboxylate] | 100% | 85.0% |
| CNC(=O)Oc1ccc(C)c(C)c1 [Meobal, 3,4-Dimethylphenyl-N-methylcarbamate, reference compound] | 100% | 40.0% |

Test system: leafhoppers of resistant and susceptible strains
Assay: Emulsion sprayed on rice seedlings, leafhoppers released (Example XVI)
Format: in vivo, leafhopper
Settings: emulsion diluted to 50 times
Protocol: About 20 rice seedlings, cultivated for 20 days after sowing in a flower pot of 8.5 cm in diameter were sprayed with each of the present compounds (31, 32, 35, 39, 40, 42, 45, 48, 55, 59, 60, 63, 131 - 134, 139) in the form of an emulsion which were diluted to 50 times. Each pot was put into the beaker and covered with gauze, into which leafhoppers of resistant and susceptible strains, respectively, were released in each beaker. And the number of knocked down insects after 1 hour and the mortality after 24 hours were counted. As a result, the knock down per centage was more than 50% and the mortality was more than 80% in each case.

| SMILES | knock down percentage after 1 hour | mortality after 24 hours |
| --- | --- | --- |
| C#CC(OC(=O)C1C(C=C(Cl)Cl)C1(C)C)C(C)=Cc1ccccc1 (stereo not drawn) [Compound 59, α-Ethynyl-β-methylcinnamyl 2,2-dimethyl-3-(2',2'-dichloro-vinyl)cyclopropanecarboxylate] | more than 50% | more than 80% |
| C#CC(OC(=O)C1C(C)(C)C1(C)C)C(=Cc1ccccc1)C(C)C (stereo not drawn) [Compound 48, α-Ethynyl-β-isopropylcinnamyl 2,2,3,3-tetramethylcyclopropane-carboxylate] | more than 50% | more than 80% |
| C#CC(OC(=O)C1(C)C(C=C2CCCC2)C1(C)C)C(C)=Cc1ccccc1C (stereo not drawn) [Compound 55, α-Ethynyl-β-methyl-2-methyl-cinnamyl 1',2',2'-trimethyl-3'-cyclopentylidenemethyl-cyclopropanecarboxylate] | more than 50% | more than 80% |
| C#CC(OC(=O)C1C(C)C1(C)C)C(=Cc1ccc(OCC)cc1)CC (stereo not drawn) [Compound 42, α-Ethynyl-β-ethyl-4-ethoxy-cinnamyl 2',2',3'-trimethyl-cyclopropanecarboxylate] | more than 50% | more than 80% |
| C#CC(OC(=O)C1C(C=C2CCCC2)C1(C)C)C(C)=Cc1ccccc1 (stereo not shown) [Compound 40] | more than 50% | more than 80% |
| C#CC(OC(=O)C1C(C=C(C)C=C)C1(C)C)C(C)=Cc1ccc(C#N)cc1 (stereo not drawn) [Compound 45, α-Ethynyl-β-methyl-4-cyano-cinnamyl 2',2'-dimethyl-3'-(2"-methyl-1",3"-butadienyl)-cyclopropanecarboxylate] | more than 50% | more than 80% |
| C#CC(OC(=O)C1C(C)(C)C1(C)C)C(C)=Cc1ccccc1 (stereo not drawn) [Compound 39, α-Ethynyl-β-methylcinnamyl 2,2,3,3-tetramethyl-cyclopropanecarboxylate] | more than 50% | more than 80% |
| C#CC(C=Cc1ccco1)OC(=O)C1C(C=C(C)C)C1(C)C (stereo not drawn) [Compound 60, α-Ethynyl-γ-(2-furyl)-allyl chrysanthemate] | more than 50% | more than 80% |

Test system: housefly adults
Assay: Oil spray, Campbel's turn table, lethal concentration (Test Example 2)
Format: in vivo
Settings: Musca domestica, 24 h
Protocol: A group of about 100 housefly adults was exposed to descending spray for 10 minutes, thereafter was transferred to an observation cage, was fed, and was allowed to stand at room temperature.
After a day, the dead and alive were counted to calculate the lethal ratio.

| SMILES | LC50 |
| --- | --- |
| C#CC(OC(=O)C1C(C=C(C)C)C1(C)C)C(=CCCC)CC (stereo not shown) [Compound 5, 1-Ethynyl-2-ethyl-2-hexenyl chrysanthemate] | 2400 µg/mL (≈ 7930 µM) |
| C#CC(OC(=O)C1C(C=C(Cl)Cl)C1(C)C)/C(C)=C/CC (stereo not shown) [Compound 126, 1-Ethynyl-2-methyl-2-pentenyl 2',2'-dimethyl-3'-(2",2"-dichlorovinyl)-yclopropanecarboxylate] | 300 µg/mL (≈ 952 µM) |
| C#CC(OC(=O)C1C(C=C(C)C)C1(C)C)C(C)=CCC=C (stereo not shown) [Compound 29, 1-Ethynyl-2-methyl-2,5-hexadienyl chrysanthemate] | 900 µg/mL (≈ 3140 µM) |
| C#CC(OC(=O)C1C(C=C(C)C)C1(C)C)C(C)=CCCC=C (stereo not shown) [Compound 128, 1-Ethynyl-2-methyl-2,6-heptadien-1-yl-chrysanthemate] | 900 µg/mL (≈ 3000 µM) |
| C#CC(OC(=O)C1C(C=C(Cl)Cl)C1(C)C)C(C)=CC (stereo not shown) [Compound 130, 1-Ethynyl-2-methyl-2-butenyl 2',2'-dimethyl-3'-2',2"-dichlorovinyl-cyclopropanecarboxylate] | 1500 µg/mL (≈ 4980 µM) |
| C#CC(OC(=O)C1C(C=C(Cl)Cl)C1(C)C)C(C)=CCCC=C (stereo not shown) [Compound 129, 1-Ethynyl-2-methyl-2,6-heptadien-1-yl 2',2'-dimethyl-3'-(2",2"-dichlorovinyl)-cyclopropane-carboxylate] | 230 µg/mL (≈ 674 µM) |
| C=CCC1=C(C)C(OC(=O)C2C(C=C(C)C)C2(C)C)CC1=O (stereo not shown) [Allethrin, reference compound] | 3500 µg/mL (≈ 11600 µM) |
| C#CC(OC(=O)C1C(C=C(Cl)Cl)C1(C)C)C(C)=CCC=C (stereo not shown) [Compound 127, 1-Ethynyl-2-methyl-2,5-hexadien-1-yl 2',2'-dimethyl-3'-(2",2"-di-chlorovinyl)-cyclopropane-carboxylate] | 250 µg/mL (≈ 764 µM) |

Same assay, conditions: Musca domestica, 24 h; Table 3a; oil spray 5 ml, 10 minutes exposure, counted after a day; read-out: LC50

| SMILES | LC50 |
| --- | --- |
| C#CC(C#CCOC)OC(=O)C1C(C=C(Cl)Cl)C1(C)C (stereo not shown) [Compound 142, 1-Ethynyl-4-methoxy-2-butyn-1-yl 2',2'-dimethyl-3'-(2",2"- dichlorovinyl)-cyclopropane-carboxylate] | 1200 µg/mL (≈ 3810 µM) |
| C#CC(C#CCOC)OC(=O)C1C(C=C(C)C)C1(C)C (stereo not shown) [Compound 68, 1-Ethynyl-4-methoxy-2-butyn-1-yl chrysanthemate] | 4000 µg/mL (≈ 14600 µM) |
| C#CC(C#CCC=C)OC(=O)C1C(C=C(C)C)C1(C)C (stereo not shown) [Compound 71, 1-Ethynylhexa-2-yn-5-en-1-yl chrysanthemate] | 2900 µg/mL (≈ 10700 µM) |
| C#CC(C#CCOc1ccccc1)OC(=O)C1C(C=C(Cl)Cl)C1(C)C (stereo not shown) [Compound 144, 1-Ethynyl-4-phenoxy-2-butyn-1-yl 2',2'-dimethyl-3'-(2",2"-dichlorovinyl)-cyclopropanecarboxylate] | 290 µg/mL (≈ 769 µM) |
| C#CC(C=CC1C=CCC1)OC(=O)C1C(C=C(C)C)C1(C)C (stereo not shown) [Compound 102, 1-Ethynyl-3-(2'-cyclopentenyl)-allyl chrysanthemate] | 600 µg/mL (≈ 2010 µM) |
| C#CC(C#CCC=C)OC(=O)C1C(C=C(Cl)Cl)C1(C)C (stereo not shown) [Compound 143, 1-Ethynyl-4-vinyl-2-butyn-1-yl 2',2'-dimethyl-340-(2",2"-dichloro-vinyl)-cyclopropanecarboxylate] | 820 µg/mL (≈ 2630 µM) |
| C#CC(OC(=O)C1C(C=C(C)C)C1(C)C)C(=CC1=CCCC1)CC (stereo not shown) [Compound 109, 1-Ethynyl-2-ethyl-3-(1'-cyclopentenyl)allyl chrysanthemate] | 340 µg/mL (≈ 1040 µM) |
| C#CC(C#CCOc1ccccc1)OC(=O)C1C(C=C(C)C)C1(C)C (stereo not shown) [Compound 79, 1-Ethynyl-4-phenoxy-2-butyn-1-yl chrysanthemate] | 830 µg/mL (≈ 2470 µM) |
| C#CC(OC(=O)C1C(C=C2CCCC2)C1(C)C)C(C)=CCC1=CCCC1 (stereo not shown) [Compound 111, 1-Ethynyl-2-methyl-4-(1'-cyclopentenyl)-2-butenyl 2",2"- dimethyl-3"-cyclopentylidene-methylcyclopropanecarboxylate] | 410 µg/mL (≈ 1160 µM) |
